# Measurements: publication PMC3665789 (PLoS ONE, 2013)
# Where two headings read alike, the source gives them in different places.
# Columns and labels:
# [1] = test system: HIV-1 IIIB; experiment: Time-of-drug-addition study, HIV; type: cell-based; details: MT-4 cells; for time of addition after infection at which antiviral activity is completely lost: p24 Ag ELISA after 31 h, 421 µM dextran sulfate 8000, 6 µM AMD3100
# Procedure: The time-of-drug-addition (TOA) experiments were performed as described. In brief, 1×10^6 MT-4 cells/ml were infected with HIV-1 X4 IIIB at a multiplicity of infection (MOI) of 0.5. The compounds were added at different time points in a range from 0 to 26 h post-infection. After 31 h, HIV-1 replication was detected by p24 HIV-1 Ag ELISA as described above. The reference compounds were added at 100 times their EC50-values, as obtained in the MT-4 cell antiviral assay.
# [2] = test system: HIV; set-up: method as in PMID 15613479, PMID 17669213; details: cited from earlier work
# [3] = test system: herpes virus; experiment: Anti-herpes virus activity of griffithsin in vitro; type: cell-based
# [4] = test system: HSV-2 wild-type; experiment: microbe, parasite or virus in culture; details: Human alphaherpesvirus 2, HEL, read-out: Median EC50
# [5] = test system: HSV-2 wild-type RV-124 (clinical isolate); experiment: microbe, parasite or virus in culture; details: Human alphaherpesvirus 2, HEL
# [6] = test system: HSV-1 TK^-; experiment: microbe, parasite or virus in culture; details: Human alphaherpesvirus 1, HEL, read-out: Median EC50
# [7] = test system: HSV-2 wild-type RV-24 (clinical isolate); experiment: microbe, parasite or virus in culture; details: Human alphaherpesvirus 2, HEL
# [8] = test system: HSV-2 strain G; experiment: Time-of-drug-addition study, HSV-2; type: cell-based; details: HEL cells; LabyA1 19 µM, ACV 35 µM; after 3 days
# Procedure: TOA experiments for HSV-2 were performed identically as the viral replication assays, but each compound separately (LabyA1 or ACV) was added together with the virus (0 h) or after 2 h post-infection. The reference compound was added at least 100 times its EC50-value, as obtained in the HEL cell line (Table 3).
# [9] = test system: HSV-2 TK^-; experiment: Anti-HSV CPE assay in HEL, summary; type: cell-based; details: Human alphaherpesvirus 2, HEL, read-out: Median EC50
# [10] = test system: HSV-1 wild-type RV-175 (clinical isolate); experiment: microbe, parasite or virus in culture; details: Human alphaherpesvirus 1, HEL
# [11] = test system: HSV-2 wild-type G (reference strain); experiment: microbe, parasite or virus in culture; details: Human alphaherpesvirus 2, HEL
# [12] = test system: HSV-1 wild-type C559142 (clinical isolate); experiment: microbe, parasite or virus in culture; details: Human alphaherpesvirus 1, HEL
# [13] = test system: HSV-1 wild-type RV-174 (clinical isolate); experiment: microbe, parasite or virus in culture; details: Human alphaherpesvirus 1, HEL
# [14] = test system: HSV-1 wild-type KOS (reference strain); experiment: microbe, parasite or virus in culture; details: Human alphaherpesvirus 1, HEL
# [15] = test system: HSV-1 wild-type; experiment: microbe, parasite or virus in culture; details: Human alphaherpesvirus 1, HEL, read-out: Median EC50
# [16] = test system: HIV-1 R5 BaL in PBMCs; experiment: Susceptibility of pre-treated PBMCs for HIV-1 infection; details: washed, HIV-1 BaL, day 7
# Procedure: The next day, cells were collected, extensively washed in culture medium, resuspended (5×10^5 cells/450 µl) and seeded in a 48-well plate. Immediately afterwards, 50 µl of HIV-1 R5 strain BaL (500 pg/well) was added and cells were cultures for 7 days. Supernatant was collected 7 days post virus infection and viral replication was determined by p24 HIV-1 Ag ELISA.
# [17] = test system: PBMCs; experiment: Activation markers CD25 and CD69 on PBMCs (flow cytometry); type: cell-based; details: 3 days, LabyA1 9.6 µM, PHA 0.016 µM
# Procedure: The effects of 9.6 µM LabyA1 and 0.016 µM PHA on the expression levels of the cellular activation markers CD25 and CD69 on PBMCs was measured after 3 days of incubation at 37°C. After washing with PBS/FCS2%, cells were incubated with anti-CD4 conjugated with PerCP (BD Biosciences) and co-stained with the PE-conjugated mAbs anti-CD25 or anti-CD69 (both BD Biosciences) for 30 min at 4°C. For aspecific background staining, cells were incubated with SimulTest™ Control (IgGγ1-FITC/IgGγ2a-PE). After washing, and fixation with 1% formaldehyde solution, samples were analyzed using the FACSCalibur and CellQuest software (BD Biosciences).
# [18] = test system: HIV-1 NL4.3; experiment: Pre-incubation of MT-4 cells with compound, wash, then HIV-1 NL4.3 infection; type: cell-based; details: MT-4 cells pre-incubated 2 h at 37°C, washed, infected with HIV-1 NL4.3; 5 days; control 100% CPE
# [19] = test system: HIV-1 NL4.3 binding to CD4+ SupT1 cells; type: cell-based; details: LabyA1 9.6 µM, sCD4 10 µg/ml, AMD3100 12 µM; no compound MFI 9.8, background 3.9
# [20] = test system: HSV-1 TK^- RV-179 (clinical isolate); experiment: microbe, parasite or virus in culture; details: Human alphaherpesvirus 1, HEL
# [21] = test system: HSV-1 TK^- RV-294 (clinical isolate); experiment: microbe, parasite or virus in culture; details: Human alphaherpesvirus 1, HEL
# [22] = test system: HSV-2 TK^- RV-129 (clinical isolate); experiment: microbe, parasite or virus in culture; type: cell-based; details: Human alphaherpesvirus 2, HEL
# [23] = test system: HSV-2 TK^- BA19026589 (clinical isolate); experiment: microbe, parasite or virus in culture; details: Human alphaherpesvirus 2, HEL
# [24] = test system: HSV-1 TK^- RV-117 (clinical isolate); experiment: microbe, parasite or virus in culture; details: Human alphaherpesvirus 1, HEL
compound,measurement,setting,value
dextran sulfate 8000,time of addition after infection at which antiviral activity is completely lost,[1],1 h
Griffithsin,anti-HIV activity,[2],pM range
same,anti-herpes virus activity in vitro,[3],lacks anti-herpes virus activity in vitro
Cc1ccnc2c1NC(=O)c1cccnc1N2C1CC1 [nevirapine],time of addition post-infection up to which full activity is kept,[1]; 7.5 µM nevirapine,4 h
"Nc1nc2c(ncn2COCCO)c(=O)[nH]1 [Acyclovir, acyclovir]",EC50,[4],270 nM
same,EC50,[5],400 ± 60 nM
same,EC50,[6],> 79000 nM
same,EC50,[7],130 ± 90 nM
same,"HSV-2 induced CPE, compound given simultaneously with virus (0 h)",[8],no CPE or viral replication were observed
same,"antiviral activity, compound added after 2 h adsorption period",[8],still active
same,EC50,[9],52000 nM
same,EC50,[10],180 ± 30 nM
same,EC50,[11],270 ± 10 nM
same,EC50,[12],90 ± 20 nM
same,EC50,[13],310 ± 20 nM
same,EC50,[14],180 ± 90 nM
same,EC50,[15],180 nM
"phytohemagglutinin [PHA, reference compound]",p24 HIV-1 Ag production after pre-treatment,[16]; PBMCs pre-treated 24 h with 0.016 µM,125.08 ± 37.81 ng/mL
same,p24 HIV-1 Ag production after pre-treatment,[16]; PBMCs pre-treated 24 h with 0.078 µM,169.54 ± 35.22 ng/mL
same,percentage of CD4+CD69+ cells,[17]; untreated 1.4±0.8%,30.9±5.5%
same,percentage of CD4+CD25+ cells,[17]; untreated 10.7±3.2%,37.2±6.6%
c1cc(CN2CCCNCCNCCCNCC2)ccc1CN1CCCNCCNCCCNCC1 [AMD3100],% CPE after pre-incubation of cells and removal of compound,[18],13.5±5.5 % CPE
same,time of addition after infection at which antiviral activity is completely lost,[1],2 h
same,"virus binding, mean fluorescence intensity (MFI) of anti-gp120 (9205) mAb",[19],9.5
enfuvirtide [T20],% CPE after pre-incubation of cells and removal of compound,[18],72.6±13.4 % CPE
"Nc1ccn(C[C@@H](CO)OCP(=O)(O)O)c(=O)n1 [Cidofovir, cidofovir]",EC50,[20],390 ± 120 nM
same,EC50,[4],1100 nM
same,EC50,[21],300 ± 20 nM
same,EC50,[5],1300 ± 300 nM
same,EC50,[6],390 nM
same,EC50,[22],550 ± 200 nM
same,EC50,[7],1100 ± 300 nM
same,EC50,[9],750 nM
same,EC50,[23],950 ± 240 nM
same,EC50,[24],500 ± 120 nM
same,EC50,[10],1100 ± 100 nM
same,EC50,[11],600 ± 100 nM
same,EC50,[12],530 ± 90 nM
same,EC50,[13],1300 ± 100 nM
same,EC50,[14],480 ± 110 nM
same,EC50,[15],820 nM
C[C@H](Cn1cnc2c(N)ncnc21)OCP(=O)(O)O [tenofovir],EC50,[11]; read-out: EC50 against HSV-2,> 200000 nM
